According to patent publication US20110250135A1, “Piperazine Derivatives for Binding and Imaging Amyloid Plaques and Their Use” (Bayer Schering Pharma Aktiengesellschaft, priority 2008, published 2011):

Tests used:
[1] = Biodistribution: organ distribution of F-18 signal in mice; format: in vivo, male NMRI mice; conditions: for Organ distribution of F-18 signal, intestine: intestine (with content); for Organ distribution of F-18 signal, stomach: stomach (without content)
Outline: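 Male NMRI mice (~30 g, 3 per time point) received ca. 150 kBq of the test compound i.v. via tail vein. At 2, 5, 30, 60 and 240 min, urine and feces were collected and organs and tissues taken for gamma counting. Values are decay-corrected % ID/g ± SD.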

Aβ plaques = target: T1, Aβ plaques (Homo sapiens, UniProt P05067); experiment: Autoradiographical analysis of binding to cryosections from cortex of AD patients and controls; conditions: F-18 labeled compound; Alzheimer's disease patients (AD) vs controls without Aβ plaques
T1 construct: controls without Aβ plaques; from tissue; host or cells: frontal lobe / cortex sections (frozen and paraffin) from AD patients, FTD patients and age-matched controls
Outline: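 Frozen (18 μm) and deparaffinized paraffin (6 μm) frontal-lobe sections from Alzheimer's, frontotemporal dementia and age-matched control brains were incubated 1.5 h at room temperature with F-18 test compound at 10 Bq/μl in 25 mM Hepes pH 7.4, 0.1% BSA. Blocking used 1000-fold excess unlabeled compound; phosphoimager readout.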

T1 sequence (P05067 672-713 limits assumed): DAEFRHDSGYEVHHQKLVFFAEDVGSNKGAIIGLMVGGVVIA

With `O=C(NCC(=O)N1CCN(c2ccc(OCc3ccccc3)cc2)CC1)c1cccnc1[18F]` [Example 12c, N-{2-[4-(4-Benzyloxy-phenyl)-piperazin-1-yl]-2-oxoethyl}-2-[F-18]-fluoro-nicotinamide] the “Organ distribution of F-18 signal, adrenals” value (shortened to “Organ distribution … adrenals”) ([1]; 2 min post i.v. injection) was 6.60 % ID/g, the “Organ distribution … adrenals” value ([1]; 5 min post i.v. injection) was 10.38 % ID/g and the “Organ distribution … adrenals” value ([1]; 30 min post i.v. injection) was 2.77 % ID/g. The “Organ distribution … adrenals” value ([1]; 60 min post i.v. injection) was 1.55 % ID/g, the “Organ distribution … adrenals” value ([1]; 240 min post i.v. injection) was 0.40 % ID/g and the “Organ distribution of F-18 signal, blood” value ([1]; 2 min post i.v. injection) was 1.78 % ID/g. For the same compound, the “Organ distribution of F-18 signal, blood” value ([1]; 5 min post i.v. injection) was 1.90 % ID/g, the “Organ distribution of F-18 signal, blood” value ([1]; 30 min post i.v. injection) was 1.30 % ID/g and the “Organ distribution of F-18 signal, blood” value ([1]; 60 min post i.v. injection) was 0.70 % ID/g. The “Organ distribution of F-18 signal, blood” value ([1]; 240 min post i.v. injection) was 0.09 % ID/g, the “Organ distribution of F-18 signal, brain” value ([1]; 2 min post i.v. injection) was 5.37 % ID/g and the “Organ distribution of F-18 signal, brain” value ([1]; 5 min post i.v. injection) was 4.60 % ID/g. For the same compound, the “Organ distribution of F-18 signal, brain” value ([1]; 30 min post i.v. injection) was 1.28 % ID/g, the “Organ distribution of F-18 signal, brain” value ([1]; 60 min post i.v. injection) was 0.60 % ID/g and the “Organ distribution of F-18 signal, brain” value ([1]; 240 min post i.v. injection) was 0.07 % ID/g. The “Organ distribution of F-18 signal, fat” value ([1]; 2 min post i.v. injection) was 1.00 % ID/g, the “Organ distribution of F-18 signal, fat” value ([1]; 5 min post i.v. injection) was 1.92 % ID/g and the “Organ distribution of F-18 signal, fat” value ([1]; 30 min post i.v. injection) was 1.89 % ID/g. For the same compound, the “Organ distribution of F-18 signal, fat” value ([1]; 60 min post i.v. injection) was 1.29 % ID/g, the “Organ distribution of F-18 signal, fat” value ([1]; 240 min post i.v. injection) was 0.11 % ID/g and the “Organ distribution of F-18 signal, femur” value ([1]; 2 min post i.v. injection) was 1.70 % ID/g. For the same compound, the “Organ distribution of F-18 signal, femur” value ([1]; 5 min post i.v. injection) was 1.63 % ID/g, the “Organ distribution of F-18 signal, femur” value ([1]; 30 min post i.v. injection) was 5.55 % ID/g and the “Organ distribution of F-18 signal, femur” value ([1]; 60 min post i.v. injection) was 7.65 % ID/g. For the same compound, the “Organ distribution of F-18 signal, femur” value ([1]; 240 min post i.v. injection) was 7.96 % ID/g, the “Organ distribution of F-18 signal, heart” value ([1]; 2 min post i.v. injection) was 4.76 % ID/g and the “Organ distribution of F-18 signal, heart” value ([1]; 5 min post i.v. injection) was 4.28 % ID/g. For the same compound, the “Organ distribution of F-18 signal, heart” value ([1]; 30 min post i.v. injection) was 1.52 % ID/g, the “Organ distribution of F-18 signal, heart” value ([1]; 60 min post i.v. injection) was 0.69 % ID/g and the “Organ distribution of F-18 signal, heart” value ([1]; 240 min post i.v. injection) was 0.08 % ID/g. The “Organ distribution of F-18 signal, intestine” value (“Organ distribution … intestine” for short) ([1]; 2 min post i.v. injection) was 1.78 % ID/g, the “Organ distribution … intestine” value ([1]; 5 min post i.v. injection) was 2.44 % ID/g and the “Organ distribution … intestine” value ([1]; 30 min post i.v. injection) was 6.62 % ID/g. For the same compound, the “Organ distribution … intestine” value ([1]; 60 min post i.v. injection) was 8.88 % ID/g, the “Organ distribution … intestine” value ([1]; 240 min post i.v. injection) was 10.54 % ID/g and the “Organ distribution of F-18 signal, kidney” value (“Organ distribution … kidney” for short) ([1]; 2 min post i.v. injection) was 7.70 % ID/g. The “Organ distribution … kidney” value ([1]; 5 min post i.v. injection) was 7.76 % ID/g, the “Organ distribution … kidney” value ([1]; 30 min post i.v. injection) was 7.88 % ID/g and the “Organ distribution … kidney” value ([1]; 60 min post i.v. injection) was 3.63 % ID/g. The “Organ distribution … kidney” value ([1]; 240 min post i.v. injection) was 0.58 % ID/g, the “Organ distribution of F-18 signal, liver” value ([1]; 2 min post i.v. injection) was 5.84 % ID/g and the “Organ distribution of F-18 signal, liver” value ([1]; 5 min post i.v. injection) was 8.93 % ID/g. The “Organ distribution of F-18 signal, liver” value ([1]; 30 min post i.v. injection) was 8.20 % ID/g, the “Organ distribution of F-18 signal, liver” value ([1]; 60 min post i.v. injection) was 6.01 % ID/g and the “Organ distribution of F-18 signal, liver” value ([1]; 240 min post i.v. injection) was 2.40 % ID/g. The “Organ distribution of F-18 signal, lung” value ([1]; 2 min post i.v. injection) was 3.52 % ID/g, the “Organ distribution of F-18 signal, lung” value ([1]; 5 min post i.v. injection) was 3.73 % ID/g and the “Organ distribution of F-18 signal, lung” value ([1]; 30 min post i.v. injection) was 1.78 % ID/g. The “Organ distribution of F-18 signal, lung” value ([1]; 60 min post i.v. injection) was 0.79 % ID/g, the “Organ distribution of F-18 signal, lung” value ([1]; 240 min post i.v. injection) was 0.15 % ID/g and the “Organ distribution of F-18 signal, muscle” value (from here on “Organ distribution … muscle”) ([1]; 2 min post i.v. injection) was 2.48 % ID/g. For the same compound, the “Organ distribution … muscle” value ([1]; 5 min post i.v. injection) was 17.41 % ID/g, the “Organ distribution … muscle” value ([1]; 30 min post i.v. injection) was 0.88 % ID/g and the “Organ distribution … muscle” value ([1]; 60 min post i.v. injection) was 0.47 % ID/g. The “Organ distribution … muscle” value ([1]; 240 min post i.v. injection) was 0.06 % ID/g, the “Organ distribution of F-18 signal, pancreas” value (from here on “Organ distribution … pancreas”) ([1]; 2 min post i.v. injection) was 3.58 % ID/g and the “Organ distribution … pancreas” value ([1]; 5 min post i.v. injection) was 4.30 % ID/g. The “Organ distribution … pancreas” value ([1]; 30 min post i.v. injection) was 1.55 % ID/g, the “Organ distribution … pancreas” value ([1]; 60 min post i.v. injection) was 0.75 % ID/g and the “Organ distribution … pancreas” value ([1]; 240 min post i.v. injection) was 0.12 % ID/g. The “Organ distribution of F-18 signal, skin” value ([1]; 2 min post i.v. injection) was 1.25 % ID/g, the “Organ distribution of F-18 signal, skin” value ([1]; 5 min post i.v. injection) was 1.23 % ID/g and the “Organ distribution of F-18 signal, skin” value ([1]; 30 min post i.v. injection) was 1.51 % ID/g. For the same compound, the “Organ distribution of F-18 signal, skin” value ([1]; 60 min post i.v. injection) was 0.66 % ID/g, the “Organ distribution of F-18 signal, skin” value ([1]; 240 min post i.v. injection) was 0.08 % ID/g and the “Organ distribution of F-18 signal, spleen” value (“Organ distribution … spleen” below) ([1]; 2 min post i.v. injection) was 1.32 % ID/g. The “Organ distribution … spleen” value ([1]; 5 min post i.v. injection) was 2.08 % ID/g, the “Organ distribution … spleen” value ([1]; 30 min post i.v. injection) was 0.87 % ID/g and the “Organ distribution … spleen” value ([1]; 60 min post i.v. injection) was 0.42 % ID/g. For the same compound, the “Organ distribution … spleen” value ([1]; 240 min post i.v. injection) was 0.06 % ID/g, the “Organ distribution of F-18 signal, stomach” value (“Organ distribution … stomach” for short) ([1]; 2 min post i.v. injection) was 3.14 % ID/g and the “Organ distribution … stomach” value ([1]; 5 min post i.v. injection) was 3.52 % ID/g. The “Organ distribution … stomach” value ([1]; 30 min post i.v. injection) was 1.91 % ID/g, the “Organ distribution … stomach” value ([1]; 60 min post i.v. injection) was 1.89 % ID/g and the “Organ distribution … stomach” value ([1]; 240 min post i.v. injection) was 0.71 % ID/g. The “Organ distribution of F-18 signal, tail” value ([1]; 2 min post i.v. injection) was 12.72 % ID/g, the “Organ distribution of F-18 signal, tail” value ([1]; 5 min post i.v. injection) was 6.80 % ID/g and the “Organ distribution of F-18 signal, tail” value ([1]; 30 min post i.v. injection) was 2.72 % ID/g. The “Organ distribution of F-18 signal, tail” value ([1]; 60 min post i.v. injection) was 3.08 % ID/g, the “Organ distribution of F-18 signal, tail” value ([1]; 240 min post i.v. injection) was 1.30 % ID/g and the “Organ distribution of F-18 signal, testicle” value (shortened to “Organ distribution … testicle”) ([1]; 2 min post i.v. injection) was 1.21 % ID/g. For the same compound, the “Organ distribution … testicle” value ([1]; 5 min post i.v. injection) was 1.79 % ID/g, the “Organ distribution … testicle” value ([1]; 30 min post i.v. injection) was 1.09 % ID/g and the “Organ distribution … testicle” value ([1]; 60 min post i.v. injection) was 0.58 % ID/g. The “Organ distribution … testicle” value ([1]; 240 min post i.v. injection) was 0.08 % ID/g, the “Organ distribution of F-18 signal, thyroid” value (“Organ distribution … thyroid” for short) ([1]; 2 min post i.v. injection) was 3.59 % ID/g and the “Organ distribution … thyroid” value ([1]; 5 min post i.v. injection) was 3.10 % ID/g. For the same compound, the “Organ distribution … thyroid” value ([1]; 30 min post i.v. injection) was 1.92 % ID/g, the “Organ distribution … thyroid” value ([1]; 60 min post i.v. injection) was 1.27 % ID/g and the “Organ distribution … thyroid” value ([1]; 240 min post i.v. injection) was 0.41 % ID/g. For the same compound, the “autoradiographical analysis of binding to cryosections from cortex” value (Aβ plaques) was “Specific binding in plaque-rich regions of AD samples”.
